Reference: paper PMC9820444, “Design and Synthesis of Acridine-Triazole and Acridine-Thiadiazole Derivatives and Their Inhibitory Effect against Cancer Cells” (International Journal of Molecular Sciences, 2022)
Read-outs that look alike come from different tables or passages of the source. Marks after values point to notes of the source that are not given here.

Experiments:
zebrafish embryos = system: zebrafish embryos; parameters: mortality rate of zebrafish embryos: dose or concentration left out as unconfirmed; details: for MAR (malformation rate) / MOR (mortality rate): zebrafish embryos 72 hpf
[1] = system: human foreskin fibroblasts (HFF); test: MTT antiproliferative assay, HFF; format: cell-based; details: read-out: Effect against cell viability (IC50), HFF
[2] = system: human normal liver cells (LO2); test: Cytotoxicity against normal liver cells LO2; format: cell-based; details: MTT, read-out: Effect against cell viability (IC50), LO2
T24 cells [3] = test: Apoptosis by Annexin V-FITC/PI flow cytometry, T24; format: cell-based, human; details: T24, at IC50 concentration (4h 8.05 μM; 6h 8.93 μM); control 1.18%
Experimental: (§1) The apoptosis ratios of MGC80-3 or T24 cell lines induced by the selected compounds at the concentration of IC50 and 0.5 IC50 were quantitatively determined by flow cytometry. Four quadrant images (Q1, Q2, Q3 and Q4) were observed by flow cytometric analysis. The results of apoptosis ratios (including the early and late apoptosis ratios) after 12 h are presented in Figure 6 (MGC80-3) and Figure 7 (T24). […] After treatment with compound 6h, 5.62% (3.43 μM) and 14.25% (6.85 μM) of the cells were apoptotic. These were higher percentages than the one observed in the control (0.586%). […] The results evidently illustrate that representative compounds 5d and 6h or 4h and 6h could suppress cell proliferation by inducing apoptosis in the early apoptotic period.
(§2) The apoptosis assay and the cell cycle analysis were carried out by cytometry (FACSVerse, BD, Piscataway, NJ, USA) at an excitation wavelength of 488 nm according to the method described in the literature with slight modifications. The cells were seeded at 2 × 10^6/well and washed by cold PBS. The buffer solutions were prepared using 0.1 M pH 7.4 Hepes/NaOH, 1.4 M NaCl, and 25 mM CaCl2.

[4] = system: human gastric cancer cells-803 (MGC-803); test: MTT antiproliferative assay, MGC-803; format: cell-based; details: read-out: Effect against cell viability (IC50), MGC-803
T24 cells [5] = test: Cell cycle analysis by flow cytometry, T24; format: cell-based, human; details: T24, 8.05 μM (IC50), 48 h; control 22.89%
Experimental: (§3) Compared to control, both compounds 4h and 5d interfered with the cell cycles of T24 and MGC80-3 cells, respectively.
as §2

[6] = system: hepatocellular carcinoma bel-7404 (BEL-7404); test: MTT antiproliferative assay, BEL-7404; format: cell-based, human; details: read-out: Effect against cell viability (IC50), BEL-7404
[7] = system: subintestinal veins (SIVs) in zebrafish embryos; test: Zebrafish angiogenesis assay (subintestinal veins, NBT/BCIP staining); format: in vivo; details: 1 mg/mL; for area of the meshed pattern vessel and number of vascular branches in the network: zebrafish embryos, compared with blank control group
From the text: Currently, the zebrafish has emerged as a valuable model organism to substitute traditional models for studying angiogenesis inhibitors. The genes of zebrafish show 70–80% similarity to humans, and the vascular structure of zebrafish has high similarity to that of other vertebrates. Therefore, the subintestinal veins (SIVs) in the zebrafish embryos are used as evaluation indicators for anti-angiogenesis inhibitors. In this study, NBT/BCIP vascular staining was used to observe the angiogenesis effect of representative drugs (4h, 4f, 5d, 5h, 6g and 6h) in a zebrafish model. […] Compared with the blank control group, the area of the meshed pattern vessel and the number of vascular branches in the network decreased after the administration of compounds 4h, 5d, 5h and 6h.
The 24 hpf zebrafish embryos were dechorionated with a 1 gL^−1 pronase treatment and maintained in distilled water in 12-well cell culture plates (each well contained 20 embryos). A negative control group containing zebrafish embryos in distilled water and a vehicle treatment group that was treated with 2% dimethyl sulfoxide (DMSO) were prepared. The anti-angiogenic compounds were diluted to 1 mg/mL. After incubating at 28 °C for […], the embryos were immersed in 4% paraformaldehyde and dehydrated by gradient ethanol. Subsequently, the embryos were balanced in NTMT buffer (5 M NaCl + 1 M Tris [pH 9.0–9.5] + 1 M MgCl2+ 10% Tween), and nitrotetrazolium blue chloride (NBT) and p-toluidine salt (BCIP) staining were performed. To evaluate the effect of compounds on the angiogenesis of zebrafish embryos, the growth of embryonic sub-intestinal veins (SIVs) at 72 hpf was observed using an IX71 Olympus microscope (Hamburger, Germany). The length of the SIVs was calculated using the image J 1.8.0 software (Bethesda, MD, USA).

[8] = system: bladder cancer cells (T24); test: MTT antiproliferative assay, T24; format: cell-based, human; details: read-out: Effect against cell viability (IC50), T24
[9] = system: large cell lung cancer cells (NCI-H460); test: MTT antiproliferative assay, NCI-H460; format: cell-based, human; details: read-out: Effect against cell viability (IC50), NCI-H460
MGC80-3 cells [10] = test: Cell cycle analysis by flow cytometry, MGC80-3; format: cell-based, human; details: MGC80-3, 5.52 μM (IC50), 48 h; control 8.91%
Experimental: as §3, §2

MGC80-3 cells [11] = test: Apoptosis by Annexin V-FITC/PI flow cytometry, MGC80-3; format: cell-based, human; details: for apoptosis percentage (early and late): control 0.586%
Experimental: as §1, with “The results of apoptosis ratios (including the early and late apoptosis ratios) after 12 h are presented in Figure 6 (MGC80-3) and Figure 7 (T24).” left out
as §2

`COc1ccc(C(=O)NNC(=S)Nc2c3ccccc3nc3ccc(C)cc23)cc1` [4h, 1-2′-methyl acridinyl-3-4’-methoxy benzoyl thiosemicarbazides] was tested, and the “MAR (malformation rate)” value (zebrafish embryos; 1 mg/mL) was 35% ^a, the “MOR (mortality rate)” value (zebrafish embryos; 1 mg/mL) was 15% ^a and the “MAR (malformation rate)” value (zebrafish embryos; 1.5 mg/mL) was 85% ^a. The “MOR (mortality rate)” value (zebrafish embryos; 1.5 mg/mL) was 15% ^a, the “MAR (malformation rate)” value (zebrafish embryos; 2 mg/mL) was 35% ^a and the “MOR (mortality rate)” value (zebrafish embryos; 2 mg/mL) was 65% ^a. For the same compound, the “total mortality and malformation rate” value (zebrafish embryos; zebrafish embryos, 2.0 mg.L^−1) was 100%, the IC50 [1] was > 100 µM and the IC50 [2] was 9.01 ± 0.93 µM. It also gave an apoptosis ratio (T24 cells [3]) of 12.377%, an IC50 ([4]; MTT) of 11.2 ± 1.46 µM and a S phase population (T24 cells [5]) of 30.04%. For the same compound, the IC50 [6] was 27.1 ± 2.91 µM, the “area of the meshed pattern vessel and number of vascular branches in the network” value [7] was “decreased” and the IC50 [8] was 8.05 ± 1.06 µM. It also gave an IC50 [9] of 25.4 ± 3.16 µM.

For `COc1ccc2nc3ccccc3c(-n3c(-c4ccc([N+](=O)[O-])cc4)n[nH]c3=S)c2c1` [5d, 4-(2-methoxyacridin-9-yl)-5-(4-nitrophenyl)-2,4-dihydro-3H-1,2,4-triazole-3-thione], the “mortality rate of zebrafish embryos” value (zebrafish embryos) was ~0%, the “malformation rate of zebrafish embryos” value (zebrafish embryos; 2.0 mg.L^−1) was “less than 15%” and the “MAR (malformation rate)” value (zebrafish embryos; 1 mg/mL) was 5% ^b. The “MOR (mortality rate)” value (zebrafish embryos; 1 mg/mL) was 0%, the “MAR (malformation rate)” value (zebrafish embryos; 1.5 mg/mL) was 10% ^a and the “MOR (mortality rate)” value (zebrafish embryos; 1.5 mg/mL) was 0%. The “MAR (malformation rate)” value (zebrafish embryos; 2 mg/mL) was 10% ^c, the “MOR (mortality rate)” value (zebrafish embryos; 2 mg/mL) was 0% and the IC50 ([1]; Homo sapiens, Fibroblast) was 62.9 ± 1.9 µM. For the same compound, the IC50 ([2]; Homo sapiens) was 51.8 ± 3.46 µM, the IC50 ([4]; Homo sapiens, MGC-803, MTT) was 5.52 ± 1.04 µM and the G2 phase population (MGC80-3 cells [10]) was 13.32%. The IC50 ([6]; Homo sapiens) was 25.1 ± 2.89 µM, the “reduction in the vessel length (SIVs) compared to the mean vessel length for the controls” value ([7]; 72 hpf zebrafish embryos) was ~50% and the “area of the meshed pattern vessel and number of vascular branches in the network” value [7] was “decreased”. The “apoptosis percentage (early and late)” value (MGC80-3 cells [11]; MGC80-3, 0.5 IC50 (5d 2.76 μM; 6h 3.43 μM)) was 6.616%, the “Q4 (live) cells” value (MGC80-3 cells [11]; MGC80-3, IC50 (5d 5.52 μM; 6h 6.85 μM), 24 h, control 93.0%) was 81.2% and the “apoptosis percentage (early and late)” value (MGC80-3 cells [11]; MGC80-3, IC50 (5d 5.52 μM; 6h 6.85 μM)) was 17.51%. The IC50 ([8]; Homo sapiens) was 15.9 ± 1.38 µM and the IC50 ([9]; Homo sapiens) was 19.4 ± 1.58 µM.
